From publication PMC10560666, “Four new triterpene saponins from Cephalaria speciosa and their potent cytotoxic and immunomodulatory activities” (Scientific Reports, 2023)
Marks after values point to notes of the source that are not given here.

What was measured:
[1] = system: A549 human lung adenocarcinoma cell line; test: MTT cytotoxicity on A549; assay type: cell-based; settings: Homo sapiens, A549, 48 h, mean ± standard deviation, n = 3, – = Not detected
Description: (§1) The human leukemia monocyte cell line (THP-1), human lung adenocarcinoma cell line (A549), human breast cancer cells (MDA-MB231), human prostate adenocarcinoma cells (PC3), human malignant glioma cell line (U87MG), human cervical gland carcinoma cells (HeLa), human hepatocellular carcinoma cells (HEP-G2) and normal human lung fibroblast cells (CCD-34-LU) as a healthy cell line in our stock used in this study were purchased from American Type Culture Collection (ATCC). THP-1 cells were cultured in Roswell Park Memorial Institute (RPMI 1640) medium and MDA-MB231, PC3, U87 MG, HeLa, HEP-G2, and CCD-34-LU cells cultivated in Dulbecco’s Modified Eagle’s Medium/Nutrient Mixture F-12 (DMEM/F12) (Gibco, USA) medium supplemented with 10% FBS (Gibco, USA), 100U/mL of penicillin 100 µg/mL of streptomycin (Gibco, USA), and 2 mM L-glutamine (Gibco, USA).
(§2) Cytotoxicity of saponins (1–4) and their prosapogenins (2a–4a) were tested against A549, MDA-MB-231, PC-3, U87MG, HeLa, HepG-2 cancer cells and CCD34-Lu healthy cell line using MTT [3-(4,5-dimethylthiazole-2-yl)-2,5-diphenyltetrazolium bromide)] assay (Acros Organics, New Jersey, USA)[11], [23]. For this purpose, 1 × 10^5 cells/mL of all the cell lines were seeded in 96-well plates (Corning, USA) and cultivated in the at 37 °C overnight. After the incubation, the cells were incubated with different concentrations of saponins (50, 5, and 0.5 µg/mL), and doxorubicin (Sigma, USA) (20, 2, and 0.2 µg/mL) for 48 h at 37 °C. Then, the MTT was added as 20 μL (from the stock concentration of 2.5 mg/mL) to all wells and further incubated for 4 h at 37 °C. Following the incubation, the medium was removed and 150 µL DMSO was added to dissolve the formed formazan crystals. After the formazan crystals were completely dissolved, the optical density (OD) was measured at 570 nm with an UV/Vis microplate spectrophotometer (Thermo Fisher Scientific, USA). All data are the results of at least three independent experiments carried out in triplicate. Data are presented as mean ± standard error of the mean (SEM) of samples. The IC50 value was calculated using the GraphPad Prism 8 (USA) program based on the calculated percent viability values and absorbance values. The percentage of viability was determined by Eq. (1):1 %Viablecells=absorbanceoftreatedcells-absorbanceofblank/absorbanceofcontrol-absorbanceofblank×100

[2] = system: CCD-34Lu normal human lung fibroblast cells; test: MTT cytotoxicity on CCD-34Lu healthy cells; assay type: cell-based; settings: Homo sapiens, Fibroblast, 48 h, mean ± standard deviation, n = 3, – = Not detected
Description: as §1, §2

[3] = system: PC-3 human prostate adenocarcinoma cells; test: MTT cytotoxicity on PC-3; assay type: cell-based; settings: Homo sapiens, 48 h, mean ± standard deviation, n = 3, – = Not detected
Description: as §1, §2

[4] = system: THP-1 derived macrophage cells; test: Macrophage polarization by flow cytometry (CD11b, CD80, CD163 MFI); assay type: cell-based, human; settings: saponin 3 µg/mL, 24 h, PMA-differentiated THP-1, mean ± SD, n = 3
Description: To differentiate THP-1 cells into M0-THP-1, cells were seeded at an initial concentration of 1 × 10^6 cells/mL in 6-well plates (Corning, USA) and treated with 15 ng/mL phorbol 12-myristate 13—acetate (PMA, Sigma USA). Then incubate at 5% CO2, 37 °C for 48 h[24]. To evaluate the potential of saponins with/without infectious bronchitis virus (IBV) D274 antigen on macrophage polarization, THP-1 cells were treated with saponins at 3 µg/mL and then incubated for 24 h with or without 4 µL of inactivated IBV D274 antigens (final titer of 1 HA). […] Based on the results of our previous research, the saponin concentration was selected as a non-cytotoxic concentration. At the end of the incubation period, the cells were collected by trypsinization and washed three times with PBS. Following, 1 µL of PE anti-human CD80 (Biolegend, CA), FITC anti-human CD163 (Biolegend, CA), and FITC anti-human CD11b (Biolegend, CA) antibodies were added into the cells pellet and incubated for 45 min at room temperature in the dark. The cells pellets underwent two PBS washes following incubation. Finally, the cells were subsequently analyzed by flow cytometry (BD Accuri, C5). 1 × 10^4 cells were counted for each sample group using flow cytometry. All data are the results of at least three independent experiments carried out in triplicate. Data are presented as mean ± standard error of the mean (SEM) of samples. The untreated stained macrophage cells with anti-human CD80, FITC anti-human CD163, and FITC anti-human CD11b were compared with the results of treated cells to obtain from M0 polarization to M1 and M2 or both.
Figure 2 (a) Saponins without antigen treatment, (b) Saponins treated with antigen. THP-1 cells were treated with 15 ng/ml PMA and 3 µg/ml saponins and 1 HA titer of IBV D274 induced in the saponins with antigen group for 24 h incubation. The macrophage polarization was determined with flow cytometry. Each value represents the mean ± standard deviation of three independents measurements. (P < 0.05*, P < 0.01**, P < 0.001***).

[5] = system: HeLa human cervical gland carcinoma cells; test: MTT cytotoxicity on HeLa; assay type: cell-based; settings: Homo sapiens, HeLa, 48 h, mean ± standard deviation, n = 3, – = Not detected
Description: as §1, §2

[6] = system: THP-1 originated-macrophage; test: MTT cytotoxicity on THP-1 originated macrophages; assay type: cell-based, human; settings: mean ± standard deviation, n = 3, – = Not detected; for IC50: Homo sapiens, THP-1, 48 h
[7] = system: MDA-MB-231 human breast cancer cells; test: MTT cytotoxicity on MDA-MB-231; assay type: cell-based; settings: Homo sapiens, MDA-MB-231, 48 h, mean ± standard deviation, n = 3, – = Not detected
Description: as §1, §2

[8] = system: U87MG human malignant glioma cell line; test: MTT cytotoxicity on U87MG; assay type: cell-based; settings: Homo sapiens, U-87 MG, 48 h, mean ± standard deviation, n = 3, – = Not detected
Description: as §1, §2

[9] = system: HepG-2 human hepatocellular carcinoma cells; test: MTT cytotoxicity on HepG-2; assay type: cell-based; settings: Homo sapiens, HepG2, 48 h, mean ± standard deviation, n = 3, – = Not detected
Description: as §1, §2

[10] = with inactivated IBV D274 antigen (1 HA)

| Structure (SMILES) | IC50 [1] | IC50 [2] | IC50 [3] | MFI of CD 11b (M0 marker) [4, 10] | MFI of CD80 (M1 marker) [4, 10] | MFI of CD 11b (M0 marker) ([4]; without antigen) | MFI of CD80 (M1 marker) ([4]; without antigen) | MFI of CD163 (M2 marker) ([4]; without antigen) | IC50 [5] | IC50 [6] | IC50 [7] | IC50 [8] | IC50 [9] | MFI of CD163 (M2 marker) [4, 10] | IC50, THP-1 originated-macrophage ([6]; 48 h) |
| --- | --- | --- | --- | --- | --- | --- | --- | --- | --- | --- | --- | --- | --- | --- | --- |
| C[C@@H]1O[C@@H](O[C@H]2[C@H](O[C@H]3CC[C@@]4(C)C(CC[C@]5(C)C4CC=C4C6CC(C)(C)CC[C@]6(C(=O)O)CC[C@]45C)[C@]3(C)CO)O[C@H](CO)[C@H](O)[C@@H]2O)[C@H](O)[C@H](O)[C@H]1O (stereo partly drawn) [Compound 1, 3-O-α-L-rhamopyranosyl-(1 → 2)-β-D-galactopyranosyl-hederagenin] | 8.59 ± 0.19 µM | > 64 µM | > 64 µM | 31,644.21 ± 849.30 | 4062.43 ± 906.36 | 28,644.50 ± 849.33 | 4,536.00 ± 239.19 | 6,400.83 ± 196.02* | 48.1 ± 4.56 µM | 27.6 ± 0.52 µM | 15.1 ± 1.02 µM | > 64 µM | > 64 µM | – | – |
| C[C@@H]1O[C@@H](O[C@H]2[C@H](O[C@H]3CC[C@@]4(C)C(CC[C@]5(C)C4CC=C4C6CC(C)(C)CC[C@]6(C(=O)O[C@@H]6O[C@H](CO[C@@H]7O[C@H](CO)[C@@H](O)[C@H](O)[C@H]7O)[C@@H](O)[C@H](O)[C@H]6O)CC[C@]45C)C3(C)C)O[C@H](CO)[C@H](O)[C@@H]2O)[C@H](O)[C@H](O)[C@H]1O (stereo partly drawn) [Compound 2, 3-O-α-L-rhamnopyranosyl-(1 → 2)-β-D-galactopyranosyl-oleanoic acid-28-O-β-D-glucopyranosyl-(1 → 6)-β-D-glucopyranosyl ester] | > 45.9 µM | > 45.9 µM | > 45.9 µM | 33,053.20 ± 951.60 | 4516.00 ± 223.23 | 29,875.39 ± 3311.75 | 3,629.71 ± 142.80 | 6,206.45 ± 185.19 | > 45.9 µM | > 45.9 µM | > 45.9 µM | > 45.9 µM | > 45.9 µM | 7441.00 ± 423.23 | – |
| C[C@@H]1O[C@@H](O[C@H]2[C@H](O[C@H]3CC[C@@]4(C)C(CC[C@]5(C)C4CC=C4C6CC(C)(C)CC[C@]6(C(=O)O)CC[C@]45C)C3(C)C)O[C@H](CO)[C@H](O)[C@@H]2O)[C@H](O)[C@H](O)[C@H]1O (stereo partly drawn) [Compound 2a, 3-O-α-L-rhamopyranosyl-(1 → 2)-β-D-galactopyranosyl oleanoic acid] | 20.8 ± 0.46 µM | > 65.4 µM | > 65.4 µM | 28,297.32 ± 808.92 | 4727.00 ± 221.96 | 26,304.81 ± 2370.42 | 3,962.53 ± 246.09 | – | > 65.4 µM | 37.3 ± 8.17 µM | 24.3 ± 2.65 µM | > 65.4 µM | > 65.4 µM | 7408.64 ± 224.16 | – |
| C[C@@H]1O[C@@H](O[C@H]2[C@H](O[C@H]3CC[C@@]4(C)C(CC[C@]5(C)C4CC=C4C6CC(C)(C)CC[C@]6(C(=O)O[C@@H]6O[C@H](CO[C@@H]7O[C@H](CO)[C@@H](O)[C@H](O)[C@H]7O)[C@@H](O)[C@H](O)[C@H]6O)CC[C@]45C)[C@]3(C)CO)OC[C@@H](O)[C@@H]2O)[C@H](O)[C@H](O)[C@H]1O (stereo partly drawn) [Compound 3, 3-O-α-L-rhamnopyranosyl-(1 → 2)-β-D-xylopyranosyl-hederagenin-28-O-β-D-glucopyranosyl-(1 → 6)-β-D-glucopyranosyl ester] | > 46.5 µM | > 46.5 µM | > 46.5 µM | 29,545.10 ± 906.36 | 4564.51 ± 138.81 | 28,092.69 ± 1435.47 | 4,549.73 ± 913.74 | 6,655.82 ± 206.67* | > 46.5 µM | > 46.5 µM | > 46.5 µM | > 46.5 µM | > 46.5 µM | 8303.34 ± 245.1** | – |
| C[C@@H]1O[C@@H](O[C@H]2[C@H](O[C@H]3CC[C@@]4(C)C(CC[C@]5(C)C4CC=C4C6CC(C)(C)CC[C@]6(C(=O)O)CC[C@]45C)[C@]3(C)CO)OC[C@@H](O)[C@@H]2O)[C@H](O)[C@H](O)[C@H]1O (stereo partly drawn) [Compound 3a, 3-O-α-L-rhamopyranosyl-(1 → 2)-β-D-xylopyranosyl hederagenin] | > 66.6 µM | > 66.6 µM | > 66.6 µM | 29,092.45 ± 852.78 | 4911.00 ± 224.16 | 29,092.75 ± 2580.19 | 4,248.00 ± 137.13 | 6,408.00 ± 195.24* | > 66.6 µM | > 66.6 µM | > 66.6 µM | > 66.6 µM | > 66.6 µM | – | did not have a cytotoxic effect |
| COc1cccc2c1C(=O)c1c(O)c3c(c(O)c1C2=O)C[C@@](O)(C(=O)CO)C[C@@H]3O[C@H]1C[C@H](N)[C@H](O)[C@H](C)O1 [Doxorubicin, doxorubicin, reference compound] | 40.01 ± 0.02 µM | 33.98 ± 0.02 µM | 4.23 ± 0.02 µM | – | – | – | – | – | 23.95 ± 0.02 µM | 6.84 ± 0.18 µM | 70 ± 0.02 µM | 11.09 ± 0.02 µM | 36.85 ± 0.02 µM | – | – |
